4 compounds from DBAASP can be followed below.

Among the test systems are Staphylococcus aureus; Yersinia pestis KIM pYV; Bacillus megaterium Bm11; Candida tropicalis; Mammaliicoccus lentus; Micrococcus luteus; Enterococcus faecalis; Escherichia coli W3110.
Holding throughout (test): ≥ marks a high value that may be exact or a test limit, other limits are often not marked, values filed in µg/mL are converted to µM
Assay [1] has as its system Candida albicans ATCC 90028.
For assay [2], the system named is Enterobacter cloacae HNTCC 53001.
Assay [3] concerns Enterococcus faecalis ATCC 29212.
The subject of assay [4] is Escherichia coli ATCC 25922.
The test system of assay [5] is Klebsiella pneumoniae KK3 9904.
In assay [6] the test system is Proteus mirabilis ATCC 25933.
In assay [7] the test system is Pseudomonas aeruginosa ATCC 27853.
Assay [8] concerns Staphylococcus aureus NCTC 8325.
Assay [9] concerns Staphylococcus aureus T7/20.
In assay [10] the test system is Staphylococcus epidermidis RP62A.
For assay [11], the system named is Acinetobacter baumannii ATCC 19606.
The subject of assay [12] is Bordetella bronchiseptica CUN 11844-99.
The test system of assay [13] is Brucella abortus 9.49 (per-).
Assay [14] concerns Escherichia coli CMCC 44102.
Assay [15] concerns Pseudomonas aeruginosa CUN 4158-02.
In assay [16] the test system is Staphylococcus aureus ATCC 43300.
Assay [17] deals with Staphylococcus aureus CMCC 26003.
Assay [18] relates to Staphylococcus aureus ΔmprFpRBsyn.
Assay [19] concerns Staphylococcus aureus ΔmprF.
The subject of assay [20] is Staphylococcus epidermidis ATCC 12228.
The test system of assay [21] is Phytophthora nicotianae PG344.
Assay [22] deals with Pseudomonas aeruginosa PAK.
Assay [23] concerns Streptococcus gordonii Challis DL1.
In assay [24] the test system is Streptococcus mitis ATCC 903.
Assay [25] deals with Streptococcus mutans UA159.
For assay [26], the system named is Streptococcus sanguinis NY101.
Assay [27] concerns Streptococcus sobrinus ATCC 33478.

Converted amounts (≈) assume the structure as drawn.

The MIC is the smallest concentration in the dilution series that meets the test's criterion for growth inhibition. `CC[C@H](C)[C@H](NC(=O)CN)C(=O)N[C@@H](CCSC)C(=O)N[C@@H](CO)C(=O)N[C@@H](CC(C)C)C(=O)N[C@@H](Cc1ccccc1)C(=O)N[C@@H](CCCCN)C(=O)NCC(=O)N[C@H](C(=O)N[C@@H](CC(C)C)C(=O)N[C@@H](CCCCN)C(=O)N[C@H](C(=O)N[C@@H](C)C(=O)NCC(=O)N[C@@H](CCCCN)C(=O)N[C@@H](Cc1cnc[nH]1)C(=O)N[C@H](C(=O)N[C@@H](C)C(=O)NCC(=O)N[C@@H](CO)C(=O)N[C@@H](CC(C)C)C(=O)N[C@H](C(=O)N[C@@H](CC(=O)O)C(=O)N[C@@H](CCC(N)=O)C(=O)N[C@@H](CC(C)C)C(=O)N[C@@H](CCCCN)C(=O)N[C@H]1CSSC[C@@H](C(=O)O)NC(=O)CNC(=O)CNC(=O)[C@H]([C@@H](C)O)NC(=O)[C@H]([C@@H](C)CC)NC(=O)[C@H](CCCCN)NC1=O)C(C)C)C(C)C)[C@@H](C)O)C(C)C` [GIMSLFKGVLKTAGKHVAGSLVDQLKCKITGGC]: the MIC in [1] was no less than 100 µM; in assay [2] it was 6 µM (≈ 20.2 µg/mL); in [3], 25 µM (≈ 84 µg/mL); in [4] it was 3 µM (≈ 10.1 µg/mL); in assay [5], 6 µM (≈ 20.2 µg/mL); in assay [6], no less than 100 µM. Besides, the MIC in [7] came out at 6 µM (≈ 20.2 µg/mL); in assay [8], 12.5 µM (≈ 42 µg/mL); in assay [9], 25 µM (≈ 84 µg/mL); in assay [10] it was 12.5 µM (≈ 42 µg/mL).

For the compound `CC[C@H](C)[C@H](NC(=O)[C@H](CCCN=C(N)N)NC(=O)[C@H](CCCN=C(N)N)NC(=O)[C@H](CC(C)C)NC(=O)[C@H](Cc1ccccc1)NC(=O)[C@@H](NC(=O)[C@H](CCCN=C(N)N)NC(=O)[C@H](CCSC)NC(=O)[C@@H](NC(=O)[C@H](CCCCN)NC(=O)[C@H](CCCCN)NC(=O)[C@H](CS)NC(=O)[C@@H](NC(=O)CNC(=O)[C@H](CCCN=C(N)N)NC(=O)[C@H](CC(C)C)NC(=O)[C@@H](NC(=O)[C@@H](N)CCCCN)[C@@H](C)CC)C(C)C)[C@@H](C)CC)[C@@H](C)O)C(=O)N[C@@H](CO)C(=O)N[C@@H](CCCCN)C(=O)N[C@@H](CC(=O)O)C(=O)N[C@H](C(=O)N[C@@H](CC(C)C)C(=O)N[C@H](C(=O)NCC(=O)N[C@@H](CCCCN)C(=O)N[C@@H](CCCCN)C(N)=O)[C@@H](C)O)[C@@H](C)CC` [KILRGVCKKIMRTFLRRISKDILTGKK], the minimum inhibitory concentration (MIC) in [11] came out at 0.624 µM (≈ 2 µg/mL); in assay [12], 1.25 µM (≈ 4 µg/mL); in [13], 9.99 µM (≈ 32 µg/mL); in assay [4], 5 µM (≈ 16 µg/mL); in assay [14] it was 4 µM (≈ 12.8 µg/mL); in [7], 8 µM (≈ 25.6 µg/mL). In addition, the MIC worked out at 9.99 µM (≈ 32 µg/mL) in assay [15]; 79.9 µM (≈ 256 µg/mL) in assay [16]; 2 µM (≈ 6.4 µg/mL) in [17]; 2.5 µM (≈ 8 µg/mL) in [18]; 2.5 µM (≈ 8 µg/mL) in [19]; 20 µM (≈ 64 µg/mL) in the assay on Staphylococcus aureus. Further, the MIC was 2 µM (≈ 6.4 µg/mL) in assay [20] and no less than 79.9 µM with Yersinia pestis KIM pYV.

Turning to `CC(C)C[C@H](N)C(=O)N[C@H](C(=O)N[C@@H](CCCN=C(N)N)C(=O)NCC(=O)N[C@H]1CSSC[C@@H](C(=O)N[C@@H](Cc2ccccc2)C(=O)N[C@H](C(=O)N[C@@H](CCCN=C(N)N)C(N)=O)C(C)C)NC(=O)[C@@H]2CCCN2C(=O)[C@H](CCCCN)NC(=O)[C@@H]2CCCN2C(=O)[C@@H]2CCCN2C(=O)[C@H](Cc2ccc(O)cc2)NC(=O)[C@H](CO)NC(=O)[C@H](CCCCN)NC(=O)[C@H]([C@@H](C)O)NC(=O)[C@H](Cc2c[nH]c3ccccc23)NC1=O)C(C)C` [LVRGCWTKSYPPKPCFVR], the MIC against Bacillus megaterium Bm11 is 20 µM (≈ 42.7 µg/mL); against Candida tropicalis, 11 µM (≈ 23.5 µg/mL); in the assay on Mammaliicoccus lentus it was no less than 50 µM; against Micrococcus luteus, 10 µM (≈ 21.3 µg/mL); in assay [21], no less than 75 µM.

In the case of `NCCCC[C@H](NC(=O)[C@H](Cc1c[nH]c2ccccc12)NC(=O)[C@@H](N)Cc1c[nH]c2ccccc12)C(=O)N[C@@H](CC(=O)O)C(=O)N[C@@H](Cc1c[nH]c2ccccc12)C(=O)N[C@@H](Cc1c[nH]c2ccccc12)C(=O)N[C@@H](CCC(=O)O)C(=O)N[C@@H](CCCN=C(N)N)C(=O)N[C@@H](Cc1c[nH]c2ccccc12)C(N)=O` [WWKDWWERW], the MIC in the assay on Enterococcus faecalis is no less than 338 µM; with Escherichia coli W3110, no less than 338 µM; in assay [22], no less than 338 µM; against Staphylococcus aureus, greater than 338 µM; in assay [23] it was no less than 338 µM; in assay [24], no less than 338 µM. Besides, the MIC in assay [25], in assay [26] and in assay [27] was no less than 338 µM each time.
